Values quoted from earlier work, collected in patent US20160000075A1, “USE OF PYRIMIDINES IN STIMULATION OF PLANT GROWTH AND DEVELOPMENT AND ENHANCEMENT OF STRESS TOLERANCE” (ULUDAG ÜNIVERSITESI TEKNOLOJI TRANSFER OFISI TICARET VE …, priority 2013, published 2016).

Experiments:
[1] = humans
cellular regeneration = conditions: compared to only using auxin in culture medium
[2] = test system: learning and memory functions; conditions: experimental animals, also environmentally impoverished animals
[3] = test system: hypoxic ischemic brain damage; conditions: infant rats exposed to hypoxic ischemic brain damage
tomato = conditions: 4 mM concentration
[4] = test system: hypoxic and ischemic brain injuries; conditions: animal experiments and some clinical studies
[5] = test system: brain lesion, rotational behaviour; conditions: uridine administered in the form of UMP
clover = conditions: external administration
[6] = test system: plant species such as Arabidopsis thaliana, Solanum tuberosum, Fragaria×ananassa, Medicago sativa, Triticum aestivum, Zea mays; conditions: external administration
cabbage = conditions: external administration

O=c1ccn([C@@H]2O[C@H](CO)[C@@H](O)[C@H]2O)c(=O)[nH]1 [uridine]
adverse effect of intravenous dose ([1]; intravenously, 10 g/m^2): cause shaking | adverse effect of high oral dosage ([1]; oral, 10 g per day): causes diarrhea | growth and branching of neurons (neurons in the culture): increases the growth and branching of these cells | cellular regeneration (cellular regeneration): increases cellular regeneration | learning and memory functions [2]: increase learning and memory functions | level of brain damage [3]: significantly reduced the level of damage

NCCCCNCCCN [spermidine]
high temperature tolerance (tomato): increase high temperature tolerance

C[N+](C)(C)CCOP(=O)(O)OP(=O)([O-])OC[C@H]1O[C@@H](n2ccc(N)nc2=O)[C@H](O)[C@@H]1O [CDP-choline, cytidine-5′-diphosphate choline]
damage in hypoxic and ischemic brain injuries [4]: reduces damage in hypoxic and ischemic brain injuries

O=c1ccn([C@@H]2O[C@H](COP(=O)(O)O)[C@@H](O)[C@H]2O)c(=O)[nH]1 [UMP, uridine-5′-monophosphate]
brain lesion and rotational behaviour [5]: ameliorated brain lesion and reduced rotational behaviour

C[N+](C)(C)CC(=O)O [GlyBet, glycine betain]
tolerance against frost (clover): increases tolerance against frost | low temperature stress tolerance [6]: increase low temperature stress tolerance | tolerance against frost (cabbage): increases tolerance against frost
